# Peptide text beside a SMILES is read from it.
# Target: T1, eIF2Bα (Homo sapiens, UniProt Q14232)
# T1 construct: made in house; host or cells: E. coli BL21(DE3)
# T1 sequence (Q14232 1-305): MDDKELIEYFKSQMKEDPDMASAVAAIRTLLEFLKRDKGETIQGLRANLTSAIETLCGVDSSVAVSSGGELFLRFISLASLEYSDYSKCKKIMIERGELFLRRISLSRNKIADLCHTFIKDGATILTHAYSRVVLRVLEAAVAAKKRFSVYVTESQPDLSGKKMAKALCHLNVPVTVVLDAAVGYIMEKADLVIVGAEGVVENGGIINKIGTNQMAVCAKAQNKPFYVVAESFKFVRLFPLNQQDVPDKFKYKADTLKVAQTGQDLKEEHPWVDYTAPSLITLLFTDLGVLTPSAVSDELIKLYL
# Test: MIDAS (mass spectrometry integrated with equilibrium dialysis) metabolite binding screen
# Settings: MIDAS metabolite binding screen with eIF2Bα; sheet "eIF2Ba"
# Method in brief: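 Hits called at Storey q < 0.1 on z-scores of PCA-corrected log2 fold change between protein and metabolite chambers, quantified by FIA-MS in triplicate.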
row,SMILES,log2(corrected fold change)
1,CC(C)(CO[P@@](=O)(O)O[P@@](=O)(O)OC[C@H]1O[C@@H](n2cnc3c(N)ncnc32)[C@H](O)[C@@H]1OP(=O)(O)O)[C@@H](O)C(=O)NCCC(=O)NCCSC(=O)CC(=O)O [Malonyl coenzyme A],-0.02331
2,OC[C@H]1O[C@H](OCC2O[C@@H](O)[C@H](O)[C@@H](O)[C@@H]2O)[C@H](O)[C@@H](O)[C@H]1O (stereo partly shown) [Melibiose],-0.003615
3,CC(C(=O)O)C(=O)O [Methylmalonic acid],-0.05121
4,"CN(C)CC(=O)O [N,N-Dimethylglycine]",0.0213
5,CC(=O)N[C@@H](CC(=O)O)C(=O)N[C@@H](CCC(=O)O)C(=O)O [N-Acetyl-Asp-Glu] (Ac-Asp-Glu-OH),0.1173
6,CC(=O)N[C@H]1C(OP(=O)(O)O)O[C@H](CO)[C@@H](O)[C@@H]1O (stereo partly drawn) [N-Acetyl-D-glucosamine 1-phosphate],-0.08166
7,CC(=O)N[C@H]1C(O)O[C@H](COP(=O)(O)O)[C@@H](O)[C@@H]1O (stereo partly drawn) [N-Acetyl-D-glucosamine 6-phosphate],-0.009906
8,CC(=O)N[C@@H]1C(O)O[C@H](CO)[C@@H](O)[C@@H]1O (stereo partly drawn) [N-Acetyl-D-mannosamine],0.03658
9,CC(=O)N[C@@H](CC(=O)O)C(=O)O [N-Acetyl-L-aspartate],0.003577
10,CC(=O)N[C@@H](CCC(=O)O)C(=O)O [N-Acetyl-L-glutamic acid],0.006675
11,CC(=O)N[C@H]1C(O)O[C@H](CO)[C@@H](O)[C@@H]1O[C@H](C)C(=O)O (stereo partly shown) [N-Acetylmuramic acid],0.002532
12,CC(=O)NCCCC[C@H](N)C(=O)O [Ne-Acetyl-lysine],-0.03422
13,CCCCCCCC(=O)O [Octanoic acid],-0.007345
14,NCCc1ccccc1 [Phenethylamine],-0.07261
15,CN(CC(=O)O)C(=N)NP(=O)(O)O [Phosphocreatine],-0.03403
16,Cc1ncc(COP(=O)(O)O)c(CN)c1O [Pyridoxamine-5-phosphate],-0.03281
17,C[S+](CC[C@H](N)C(=O)O)C[C@H]1O[C@@H](n2cnc3c(N)ncnc32)[C@H](O)[C@@H]1O (stereo partly drawn) [S-(5-Adenosyl)-L-methionine],0.006892

# Continued, values first:
row,log2(corrected fold change),SMILES
1,-0.0313,CC(=O)N[C@H]1[C@H]([C@H](O)[C@H](O)CO)OC(O)(C(=O)O)C[C@@H]1O (stereo partly shown) [N-Acetylneuraminic acid]
2,-0.02217,O=C(CO)N[C@H]1[C@H]([C@H](O)[C@H](O)CO)OC(O)(C(=O)O)C[C@@H]1O (stereo partly shown) [N-Glycolylneuraminic acid]
3,-0.05912,CCCCCC(=O)NCC(=O)O [N-Hexanoyl-glycine]
4,-0.07333,CC(C)CC(=O)NCC(=O)O [N-Isovalerylglycine]
5,0.1674,NC(=O)C1=CN([C@@H]2O[C@H](COP(=O)(O)OP(=O)(O)OC[C@H]3O[C@@H](n4cnc5c(N)ncnc54)[C@H](O)[C@@H]3O)[C@@H](O)[C@H]2O)C=CC1 [NADH]
6,0.02005,NC(=O)c1ccc[n+]([C@@H]2O[C@H](COP(=O)([O-])OP(=O)(O)OC[C@H]3O[C@@H](n4cnc5c(N)ncnc54)[C@H](OP(=O)(O)O)[C@@H]3O)[C@@H](O)[C@H]2O)c1 [NADP]
7,-0.03422,CC(=O)N[C@@H](CCCCN)C(=O)O [Nalpha-Acetyl-L-lysine]
8,-0.063,NC(=O)c1ccc[n+]([C@@H]2O[C@H](COP(=O)([O-])OP(=O)(O)OC[C@H]3O[C@@H](n4cnc5c(N)ncnc54)[C@H](O)[C@@H]3O)[C@@H](O)[C@H]2O)c1 [Nicotinamide adenine dinucleotide]
9,0.01938,N[C@@H](COP(=O)(O)O)C(=O)O [O-Phospho-L-serine]
10,0.3691,CCCCCCCC(=O)SCCNC(=O)CCNC(=O)C(O)C(C)(C)COP(=O)(O)OP(=O)(O)OC[C@H]1O[C@@H](n2cnc3c(N)ncnc32)[C@H](O)[C@@H]1OP(=O)(O)O (stereo partly shown) [Octanoyl coenzyme A]
11,0.0165,CC(C)(CO)[C@@H](O)C(=O)NCCC(=O)O [Pantothenic acid]
12,0.1983,Cc1ncc(COP(=O)(O)O)c(C=O)c1O [Pyridoxal 5-phosphate]
13,0.1009,Cc1ncc(CO)c(C=O)c1O [Pyridoxal]
14,0.0724,Cc1ncc(CO)c(CN)c1O [Pyridoxamine]
15,0.06004,Cc1cc2nc3c(=O)[nH]c(=O)nc-3n(C[C@H](O)[C@H](O)[C@H](O)COP(=O)(O)O)c2cc1C [Riboflavin 5-monophosphate]
16,-0.04124,C[C@@H](O)C(=O)SC[C@H](NC(=O)CC[C@H](N)C(=O)O)C(=O)NCC(=O)O [S-Lactoylglutathione]
17,-0.05121,O=C(O)CCC(=O)O [Succinic acid]

# Same assay, conditions: MIDAS screen, sheet eIF2Ba; metabolites screened in pools 1-4; p-value and q-value given
row,SMILES,log2(corrected fold change)
1,O=P(O)(O)OC1O[C@H](CO)[C@@H](O)[C@H](O)[C@@H]1O (stereo partly shown) [Mannose 1-phosphate],-0.1344
2,CNCC(O)c1ccc(O)c(OC)c1 (stereo not shown) [Metanephrine],-0.1853
3,"CC(=O)N[C@H]1[C@H](O[C@H]2[C@H](O)[C@@H](NC(C)=O)C(O)O[C@@H]2CO)O[C@H](CO)[C@@H](O)[C@@H]1O (stereo partly shown) [N,N-Diacetylchitobiose]",0.08913
4,O=C(O)CNC(=O)c1ccco1 [N-2-Furoylglycine],-0.1649
5,CC(=O)NCCc1c[nH]c2ccc(O)cc12 [N-Acetyl-5-hydroxytryptamine],0.03423
6,CC(=O)N[C@H]1C(O)O[C@H](CO)[C@H](O)[C@@H]1O (stereo partly drawn) [N-Acetyl-D-galactosamine],0.3673
7,CC(=O)N[C@@H]1[C@@H](O)[C@H](O)[C@@H](CO)O[C@@H]1O [N-Acetyl-D-glucosamine],0.3673
8,CC(=O)N[C@@H](C)C(=O)O [N-Acetyl-L-alanine],0.07527
9,O=CNc1ccccc1C(=O)O [N-Formylanthranilic acid],0.2026
10,NC(=O)c1ccc[n+](C2OC(COP(=O)(O)OP(=O)(O)OCC3OC(n4cnc5c(=O)[nH]cnc54)C(O)C3O)C(O)C2O)c1 (stereo not shown) [Nicotinamide hypoxanthine dinucleotide],0.06307
11,NC(=O)c1ccc[n+]([C@@H]2O[C@H](COP(=O)([O-])O)[C@@H](O)[C@H]2O)c1 [Nicotinamide ribotide],1.511
12,CC(=O)O[C@H](CC(=O)[O-])C[N+](C)(C)C [O-Acetyl-L-carnitine],-0.03661

# Now from value to compound:
row,log2(corrected fold change),SMILES
1,-0.2203,CC(=O)NCCCCN [N-Acetylputrescine]
2,-0.8133,NC(=O)C1=CN([C@@H]2O[C@H](COP(=O)(O)OP(=O)(O)OC[C@H]3O[C@@H](n4cnc5c(N)ncnc54)[C@H](OP(=O)(O)O)[C@@H]3O)[C@@H](O)[C@H]2O)C=CC1 [NADPH]
3,-0.1042,NC(=O)c1cccnc1 [Nicotinamide]
4,-0.1307,O=C(O)c1cccnc1 [Nicotinic acid]
5,0.1876,NCCOP(=O)(O)O [O-Phosphorylethanolamine]
6,0.07847,O=C(O)c1cc(=O)[nH]c(=O)[nH]1 [Orotic acid]
7,0.1095,O=C(O)CC(=O)C(=O)O [Oxaloacetic acid]
8,0.07604,O=C(O)CNC(=O)Cc1ccccc1 [Phenylacetylglycine]
9,0.02641,O=C(O)C(=O)Cc1ccccc1 [Phenylpyruvate]
10,-0.0156,C[N+](C)(C)CCOP(=O)(O)O [Phosphocholine]
11,-0.05886,NCc1[nH]cc(CCC(=O)O)c1CC(=O)O [Porphobilinogen]
12,0.4521,CCC(=O)SCCNC(=O)CCNC(=O)[C@H](O)C(C)(C)COP(=O)(O)OP(=O)(O)OC[C@H]1O[C@@H](n2cnc3c(N)ncnc32)[C@H](O)[C@@H]1OP(=O)(O)O [Propionyl coenzyme A]
13,0.07527,CCC(=O)NCC(=O)O [Propionylglycine]
14,0.05625,CCCCC[C@H](O)/C=C/[C@H]1C(=O)C[C@H](O)[C@@H]1C/C=C\CCCC(=O)O [Prostaglandin D2]
15,0.05625,CCCCC[C@H](O)/C=C/[C@H]1[C@H](O)CC(=O)[C@@H]1C/C=C\CCCC(=O)O [Prostaglandin E2]
16,0.05625,CCCCC[C@H](O)/C=C/[C@@H]1[C@H]2C/C(=C/CCCC(=O)O)O[C@H]2C[C@H]1O [Prostaglandin I2]
17,-0.04546,Cc1ncc(CO)c(CO)c1O [Pyridoxine]
18,0.3728,Cc1cc2nc3c(=O)[nH]c(=O)nc-3n(C[C@H](O)[C@H](O)[C@H](O)CO)c2cc1C [Riboflavin]
19,-0.01949,Nc1ncnc2c1ncn2[C@@H]1O[C@H](CSCC[C@H](N)C(=O)O)[C@@H](O)[C@H]1O [S-(5-Adenosyl)-L-homocysteine]
20,-0.1398,CNCC(=O)O [Sarcosine]
21,0.1384,CC(C)(COP(=O)(O)OP(=O)(O)OC[C@H]1O[C@@H](n2cnc3c(N)ncnc32)[C@H](O)[C@@H]1OP(=O)(O)O)[C@H](O)C(=O)NCCC(=O)NCCSC(=O)CCC(=O)O [Succinyl coenzyme A]

# Source: article PMC8187479, “Sugar phosphate activation of the stress sensor eIF2B” (Nature Communications, 2021)
